This is an account of results in patent US9718796B2, “Substituted benzoazepines as toll-like receptor modulators” (VENTIRX PHARMACEUTICALS, INC., priority 2011, dated 2017).

Like-named read-outs stand apart in the source and are kept apart here. A value given as a limit tells only on which side of the number the result lay.

The target of one test is T1, hTLR8 (Homo sapiens, UniProt Q9NR97).
T1 construct: host or cells: HEK293 cells stably transfected with hTLR8
T1 sequence (Q9NR97 27-1041): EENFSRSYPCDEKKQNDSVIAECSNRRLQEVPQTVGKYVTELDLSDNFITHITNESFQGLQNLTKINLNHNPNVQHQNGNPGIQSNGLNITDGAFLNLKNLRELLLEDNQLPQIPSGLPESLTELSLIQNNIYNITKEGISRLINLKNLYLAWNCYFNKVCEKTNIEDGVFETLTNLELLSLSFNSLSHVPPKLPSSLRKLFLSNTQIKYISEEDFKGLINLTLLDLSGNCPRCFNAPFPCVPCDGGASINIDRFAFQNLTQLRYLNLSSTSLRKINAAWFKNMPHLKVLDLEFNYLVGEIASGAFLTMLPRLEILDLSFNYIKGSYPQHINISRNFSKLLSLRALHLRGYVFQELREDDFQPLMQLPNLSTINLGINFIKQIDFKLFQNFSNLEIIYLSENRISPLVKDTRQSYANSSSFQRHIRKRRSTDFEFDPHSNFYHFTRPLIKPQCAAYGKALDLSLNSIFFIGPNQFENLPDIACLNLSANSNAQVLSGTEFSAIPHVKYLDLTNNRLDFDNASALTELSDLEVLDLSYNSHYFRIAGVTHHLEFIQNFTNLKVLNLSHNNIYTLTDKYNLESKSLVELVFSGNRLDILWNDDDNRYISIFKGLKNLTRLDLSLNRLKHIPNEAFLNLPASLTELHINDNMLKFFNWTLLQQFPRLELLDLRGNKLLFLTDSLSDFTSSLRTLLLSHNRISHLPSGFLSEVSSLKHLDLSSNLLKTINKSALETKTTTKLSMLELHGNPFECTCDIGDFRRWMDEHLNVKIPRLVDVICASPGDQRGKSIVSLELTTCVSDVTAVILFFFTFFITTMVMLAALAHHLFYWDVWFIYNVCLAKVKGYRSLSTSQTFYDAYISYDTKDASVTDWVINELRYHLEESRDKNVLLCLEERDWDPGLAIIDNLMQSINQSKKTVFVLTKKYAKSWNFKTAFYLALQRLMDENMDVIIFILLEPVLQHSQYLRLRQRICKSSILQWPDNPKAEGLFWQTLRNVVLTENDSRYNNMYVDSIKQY
The test can be described thus: HEK-293 hTLR8 transfectant antagonist assay (NF-κB driven SEAP reporter). It counts as cell-based. The settings on record: hTLR8 reporter cells. The procedure:
The HEK-293 hTLR transfectant assay employs HEK293 cells stably transfected with various hTLRs and transiently co-transfected with a plasmid containing an NF-κB driven secreted embryonic alkaline phosphate (SEAP) reporter gene. Stimulation of TLRs activates their downstream signaling pathways and induces nuclear translocation of the transcription factor NF-κB. Reporter gene activity is then measured using a spectrophotometric assay. To measure antagonist activity, human embryonic kidney (HEK) cells (e.g., 293XL-hTLR8 cells available from InvivoGen, San Diego, Calif.) are prepared according to supplier's instructions and incubated with various concentrations of test compound overnight. The amount of induced […] is measured by reading the absorbance at 650 nm. The compounds of the invention have an MC50 of 25 μM or less, wherein MC50 is defined as the concentration at which 50% of maximum induction is seen. For the TLR8 antagonist assays, cells are transiently transfected with the reporter gene on Day 1 per the supplier's instructions. Antagonist compounds are added to the cultures on Day 2 followed by addition of a TLR8 agonist approximately 2 hours later. Cultures are incubated overnight and SEAP activity is measured on Day 3. In a typical assay, 50,000 HEK239 hTLR8 cells are seeded per culture well and transiently transfected with the SEAP reporter gene. Antagonists are added to cultures in culture medium and […] DMSO over a concentration range of 0.1 nanomolar to 10 micromolar. TLR8 agonists are added to cultures 2 hours later at a fixed concentration (e.g., 1 micromolar or 10 micromolar of Compound A) and cultures are then incubated for 16-24 hrs at 37° C. in a humidified CO incubator. Antagonists are also evaluated for activity in the absence of agonist. TLR8 antagonist activity was measured in a hTLR8 assay format, measuring IC50 values. […] IC50s were then calculated.

The subject of test [1] is IL-8 production in human PBMC stimulated with CL075. The test is described as follows: Human PBMC assay: inhibition of IL-8 production stimulated with CL075 (ELISA). It counts as cell-based. The settings on record: 3 to 1000 nM antagonist, 2 hours before CL075 100 ng/ML (400 nM), overnight; one donor, duplicate wells. The procedure:
PBMCs contain a mixture of cells including monocytes and myeloid dendritic cells (mDCs) that express TLR8. […] The ability of TLR8 antagonists to inhibit […] in human PBMCs was evaluated. […] Data shown in FIG. 1 are a representative experiment from one donor evaluated in duplicate culture wells. […] At the end of the incubation, cells were centrifuged and cell culture supernatants were analyzed for IL-8 by ELISA (eBiosciene kit) per the manufacturer's instructions.
The experiment shown in FIG. 1 was repeated in multiple donors and with additional TLR8 antagonist molecules (see FIG. 2). […] Percent inhibition is shown on the y-axis and concentrations of TLR8 antagonists (3-1000 nM) are shown on the x-axis in FIG. 2.

[2] abbreviates: IC50, nM, vs. 3M002 10 μM, agonist 3M002 10 μM.
[3] abbreviates: IC50, nM, vs. VTX-378 1 μM, TLR8 agonist VTX-378 (Compound A) 1 μM.
Setting [4] is: TLR8 agonist VTX-378 (Compound A) 0.5 μM, read-out: IC50, nM, vs. VTX-378 0.5 μM.

Regarding `CCOC(=O)Nc1ccc(-c2ccc3c(c2)C=C(C(=O)OCC)CC(N)=N3)c(Cl)c1` [Compound 3261, Ethyl 2-amino-7-{2-chloro-4-[(ethoxycarbonyl)amino]phenyl}-3H-1-benzazepine-4-carboxylate], the IC50 on hTLR8 (setting [2]), at hTLR8 (setting [3]) and at hTLR8 (setting [4]) was under 1000 nM each time. In test [1], the “IL-8 levels in human PBMC stimulated with CL075 (FIG. 1)” value (from here on “IL-8 levels in human PBMC stimulated”) is given as “reduced in a dose dependent fashion”.
`CCCN(CCC)C(=O)C1=Cc2cc(-c3ccc(C(=O)N4CCCC4)cc3)ccc2N=C(N)C1` [Compound 2987, 2-Amino-N,N-dipropyl-7-[4-(pyrrolidin-1-ylcarbonyl)phenyl]-3H-1-benzazepine-4-carboxamide]: in test [1], the “IL-8 levels in human PBMC stimulated” value is “reduced in a dose dependent fashion”.
Turning to `CCOC(=O)C1=Cc2cc(-c3ccc(N4CCOC4=O)cc3Cl)ccc2N=C(N)C1` [Compound 3387, Ethyl 2-amino-7-[2-chloro-4-(2-oxo-1,3-oxazolidin-3-yl)phenyl]-3H-1-benzazepine-4-carboxylate], the IC50 at hTLR8 (setting [2]), on hTLR8 (setting [3]) and on hTLR8 (setting [4]) was under 1000 nM in each case. In test [1], the “IL-8 levels in human PBMC stimulated” value is “reduced in a dose dependent fashion”.
`CCOC(=O)C1=Cc2cc(-c3ccc(C(=O)N4CCCC4)cc3)ccc2N=C2NCCC12` (stereo not shown) [Compound 3448]: the IC50 at hTLR8 (setting [3]) and at hTLR8 (setting [4]) was under 1000 nM throughout. In addition, in test [1], the “IL-8 levels in human PBMC stimulated” value is recorded as “reduced in a dose dependent fashion”.
`CCOC(=O)C1=Cc2cc(-c3ccc(C(=O)N4CCCC4)cc3)ccc2N=C(N)C1(C)C` [Compound 3348, Ethyl 2-amino-3,3-dimethyl-7-[4-(pyrrolidin-1-ylcarbonyl)phenyl]-3H-1-benzazepine-4-carboxylate]: the “IL-8 levels in human PBMC stimulated” value in test [1] was “reduced in a dose dependent fashion”.
